Experimental data: patent publication US20120010075A1 (priority 2009, published 2012)

system: not given; assay: not given; conditions: not given

Compound	melting point [°C]
O=C(N/N=C/c1cc(Cl)cc(Cl)c1O)c1cc(Cl)ccc1O [Example 475]	287 to 292
COc1ccc(/C(C)=N/NC(=O)c2ccccc2Br)c(O)c1 [Example 476]	205 to 206
COc1ccc(C(=O)N/N=C(\C)c2cc(Cl)cc(Cl)c2O)c(O)c1 [Example 477]	310 to 312
COc1ccc(O)c(C(=O)N/N=C(\C)c2cc(Cl)cc(Cl)c2O)c1 [Example 478]	327 to 331
C/C(=N\NC(=O)c1c(C)cccc1O)c1cc(Cl)cc(Cl)c1O [Example 479]	245
C/C(=N\NC(=O)c1cccc(Cl)c1O)c1cc(Cl)cc(Cl)c1O [Example 481]	260 to 262
COc1ccc(C(=O)N/N=C(\C)c2ccc(OC)cc2O)cc1 [Example 482]	226 to 227
COc1ccc(/C(C)=N/NC(=O)c2ccc(Br)cc2)c(O)c1 [Example 483]	239 to 241
COc1cccc(C(=O)N/N=C(\C)c2cc(Cl)cc(Cl)c2O)c1O [Example 484]	258 to 259
Cc1cccc(O)c1C(=O)N/N=C/c1cc(Cl)cc(Cl)c1O [Example 485]	217 to 219
COc1ccc(C(=O)N/N=C/c2cc(Cl)cc(Cl)c2O)c(O)c1 [Example 486]	267 to 269
COc1ccc(O)c(C(=O)N/N=C/c2cc(Cl)cc(Cl)c2O)c1 [Example 487]	250 to 252
O=C(N/N=C/c1cc(Cl)cc(Cl)c1O)c1ccc2ccccc2c1O [Example 488]	276 to 278
C/C(=N\NC(=O)c1ccc(Cl)cc1O)c1cc(Cl)cc(Cl)c1O [Example 489]	314 to 317
C/C(=N\NC(=O)c1cc(Cl)ccc1O)c1cc(Cl)cc(Cl)c1O [Example 490]	322 to 325
C/C(=N\NC(=O)c1ccc(C)cc1O)c1cc(Cl)cc(Cl)c1O [Example 491]	320 to 323
C/C(=N\NC(=O)c1ccccc1)c1cccc(Cl)c1O [Example 492]	202 to 203
C/C(=N\NC(=O)c1ccccc1C)c1cccc(Cl)c1O [Example 493]	193 to 198
C/C(=N\NC(=O)c1cccc(C)c1)c1cccc(Cl)c1O [Example 494]	164 to 178
C/C(=N\NC(=O)c1ccc(C)cc1)c1cccc(Cl)c1O [Example 495]	195 to 200
C/C(=N\NC(=O)c1ccccc1Cl)c1cccc(Cl)c1O [Example 496]	189 to 193

system: Phytophthora infestans; assay: not given; assay type: in vivo, Phytophthora infestans on tomato; conditions: hydrazone 50 ppm with 50 μM CuCl2.2H2O, applied 24 h before inoculation; assessed 7 days after inoculation; tomato late blight

Compound	TLB % Control [%]
O=C(N/N=C/c1cc(Cl)cc(Cl)c1O)c1cc(Cl)ccc1O [Example 475]	100.0
COc1ccc(/C(C)=N/NC(=O)c2ccccc2Br)c(O)c1 [Example 476]	69.0
COc1ccc(C(=O)N/N=C(\C)c2cc(Cl)cc(Cl)c2O)c(O)c1 [Example 477]	93.0
COc1ccc(O)c(C(=O)N/N=C(\C)c2cc(Cl)cc(Cl)c2O)c1 [Example 478]	65.0
C/C(=N\NC(=O)c1c(C)cccc1O)c1cc(Cl)cc(Cl)c1O [Example 479]	97.0
C/C(=N\NC(=O)c1cccc(Cl)c1O)c1cc(Cl)cc(Cl)c1O [Example 481]	76.0
COc1ccc(C(=O)N/N=C(\C)c2ccc(OC)cc2O)cc1 [Example 482]	66.0
COc1ccc(/C(C)=N/NC(=O)c2ccc(Br)cc2)c(O)c1 [Example 483]	63.0
COc1cccc(C(=O)N/N=C(\C)c2cc(Cl)cc(Cl)c2O)c1O [Example 484]	88.0
Cc1cccc(O)c1C(=O)N/N=C/c1cc(Cl)cc(Cl)c1O [Example 485]	95.0
COc1ccc(C(=O)N/N=C/c2cc(Cl)cc(Cl)c2O)c(O)c1 [Example 486]	95.0
COc1ccc(O)c(C(=O)N/N=C/c2cc(Cl)cc(Cl)c2O)c1 [Example 487]	100.0
O=C(N/N=C/c1cc(Cl)cc(Cl)c1O)c1ccc2ccccc2c1O [Example 488]	72.0
C/C(=N\NC(=O)c1ccc(Cl)cc1O)c1cc(Cl)cc(Cl)c1O [Example 489]	85.0
C/C(=N\NC(=O)c1cc(Cl)ccc1O)c1cc(Cl)cc(Cl)c1O [Example 490]	55.0
C/C(=N\NC(=O)c1ccc(C)cc1O)c1cc(Cl)cc(Cl)c1O [Example 491]	75.0
C/C(=N\NC(=O)c1ccccc1)c1cccc(Cl)c1O [Example 492]	93.0
C/C(=N\NC(=O)c1ccccc1C)c1cccc(Cl)c1O [Example 493]	95.0
C/C(=N\NC(=O)c1cccc(C)c1)c1cccc(Cl)c1O [Example 494]	96.0
C/C(=N\NC(=O)c1ccc(C)cc1)c1cccc(Cl)c1O [Example 495]	91.0
C/C(=N\NC(=O)c1ccccc1Cl)c1cccc(Cl)c1O [Example 496]	94.0

system: Leptosphaeria nodorum (LEPTNO); assay: In vitro fungitoxicity of hydrazones with and without copper towards Leptosphaeria nodorum (Example 26); assay type: cell-based; conditions: Parastagonospora nodorum, 72 h, copper-minus medium; test compound Concn. 0.05 μg/mL; 72 h at 25° C.; read-out: LEPTNO % Inhn. Minus Copper Observed

Compound	inhibition of growth at 0.05 µg/mL [%]
O=C(N/N=C/c1cc(Cl)cc(Cl)c1O)c1cc(Cl)ccc1O [Example 475]	33.8
COc1ccc(/C(C)=N/NC(=O)c2ccccc2Br)c(O)c1 [Example 476]	0
COc1ccc(C(=O)N/N=C(\C)c2cc(Cl)cc(Cl)c2O)c(O)c1 [Example 477]	6.2
COc1ccc(O)c(C(=O)N/N=C(\C)c2cc(Cl)cc(Cl)c2O)c1 [Example 478]	0.7
C/C(=N\NC(=O)c1c(C)cccc1O)c1cc(Cl)cc(Cl)c1O [Example 479]	0
C/C(=N\NC(=O)c1cccc(Cl)c1O)c1cc(Cl)cc(Cl)c1O [Example 481]	10.3
COc1ccc(C(=O)N/N=C(\C)c2ccc(OC)cc2O)cc1 [Example 482]	0
COc1ccc(/C(C)=N/NC(=O)c2ccc(Br)cc2)c(O)c1 [Example 483]	0
COc1cccc(C(=O)N/N=C(\C)c2cc(Cl)cc(Cl)c2O)c1O [Example 484]	12.6
Cc1cccc(O)c1C(=O)N/N=C/c1cc(Cl)cc(Cl)c1O [Example 485]	8
COc1ccc(C(=O)N/N=C/c2cc(Cl)cc(Cl)c2O)c(O)c1 [Example 486]	12.8
COc1ccc(O)c(C(=O)N/N=C/c2cc(Cl)cc(Cl)c2O)c1 [Example 487]	11.2
O=C(N/N=C/c1cc(Cl)cc(Cl)c1O)c1ccc2ccccc2c1O [Example 488]	20.1
C/C(=N\NC(=O)c1ccc(Cl)cc1O)c1cc(Cl)cc(Cl)c1O [Example 489]	15.8
C/C(=N\NC(=O)c1cc(Cl)ccc1O)c1cc(Cl)cc(Cl)c1O [Example 490]	31.5
C/C(=N\NC(=O)c1ccc(C)cc1O)c1cc(Cl)cc(Cl)c1O [Example 491]	25
C/C(=N\NC(=O)c1ccccc1)c1cccc(Cl)c1O [Example 492]	0
C/C(=N\NC(=O)c1ccccc1C)c1cccc(Cl)c1O [Example 493]	0
C/C(=N\NC(=O)c1cccc(C)c1)c1cccc(Cl)c1O [Example 494]	0
C/C(=N\NC(=O)c1ccc(C)cc1)c1cccc(Cl)c1O [Example 495]	0
C/C(=N\NC(=O)c1ccccc1Cl)c1cccc(Cl)c1O [Example 496]	0.7

same assay, conditions: copper-plus medium (CuCl2 10 μM); test compound Concn. 0.05 μg/mL; 72 h at 25° C.

Compound	LEPTNO % Inhn. Plus Copper Observed [%]
O=C(N/N=C/c1cc(Cl)cc(Cl)c1O)c1cc(Cl)ccc1O [Example 475]	97.1
COc1ccc(/C(C)=N/NC(=O)c2ccccc2Br)c(O)c1 [Example 476]	93.9
COc1ccc(C(=O)N/N=C(\C)c2cc(Cl)cc(Cl)c2O)c(O)c1 [Example 477]	83.4
COc1ccc(O)c(C(=O)N/N=C(\C)c2cc(Cl)cc(Cl)c2O)c1 [Example 478]	94.7
C/C(=N\NC(=O)c1c(C)cccc1O)c1cc(Cl)cc(Cl)c1O [Example 479]	97.5
C/C(=N\NC(=O)c1cccc(Cl)c1O)c1cc(Cl)cc(Cl)c1O [Example 481]	97.8
COc1ccc(C(=O)N/N=C(\C)c2ccc(OC)cc2O)cc1 [Example 482]	96.4
COc1ccc(/C(C)=N/NC(=O)c2ccc(Br)cc2)c(O)c1 [Example 483]	97.9
COc1cccc(C(=O)N/N=C(\C)c2cc(Cl)cc(Cl)c2O)c1O [Example 484]	93.2
Cc1cccc(O)c1C(=O)N/N=C/c1cc(Cl)cc(Cl)c1O [Example 485]	96.7
COc1ccc(C(=O)N/N=C/c2cc(Cl)cc(Cl)c2O)c(O)c1 [Example 486]	96.6
COc1ccc(O)c(C(=O)N/N=C/c2cc(Cl)cc(Cl)c2O)c1 [Example 487]	93.9
O=C(N/N=C/c1cc(Cl)cc(Cl)c1O)c1ccc2ccccc2c1O [Example 488]	92.6
C/C(=N\NC(=O)c1ccc(Cl)cc1O)c1cc(Cl)cc(Cl)c1O [Example 489]	97.8
C/C(=N\NC(=O)c1cc(Cl)ccc1O)c1cc(Cl)cc(Cl)c1O [Example 490]	97.0
C/C(=N\NC(=O)c1ccc(C)cc1O)c1cc(Cl)cc(Cl)c1O [Example 491]	97.5
C/C(=N\NC(=O)c1ccccc1)c1cccc(Cl)c1O [Example 492]	98.1
C/C(=N\NC(=O)c1ccccc1C)c1cccc(Cl)c1O [Example 493]	97.8
C/C(=N\NC(=O)c1cccc(C)c1)c1cccc(Cl)c1O [Example 494]	97.7
C/C(=N\NC(=O)c1ccc(C)cc1)c1cccc(Cl)c1O [Example 495]	97.3
C/C(=N\NC(=O)c1ccccc1Cl)c1cccc(Cl)c1O [Example 496]	97.8
